Tested on: A375 human melanoma xenografts
Test: In vivo therapeutic efficacy in A375 human melanoma xenografts (tumor volume, T/C, TGI), Example 14
Design: species or system human tumor in female BALB/c nude mice
Details: for T/C / TGI: PG-D21
Procedure: Agents were tested in the A375 human melanoma xenografts. Compound 26 and Compound 141 were administered to BALB/c nude mice bearing A375 tumors from PG-DO and dosed via PO twice a day (BID) or third a day (TIP) or dosed P daily (QD) from PG-D. Dabrafenib was administered to BALB/c nude mice bearing A375 tumors from PG-D1 and dosed via P daily (QD). Compound 26 was dosed at 1.5 mg/kg (QD), 2 mg/kg (TID), 3 mg/kg (BID), 6 mg/kg (QD) and 10 mg/kg (BID) for 21 days. Compound 141 was dosed at 0.75 mg/kg (BID), 1 mg/kg (TID), 1.5 mg/kg (BID), 3 mg/kg (QD) and 5 mg/kg (BID) for 21 days. Dabrafenib was dosed at 100 mg/kg for 21 days. This study was non-GLP.
One hundred and thirty-eight female BALB/c nude Mus Musculus mice procured from Shanghai Lingchang Biological Science and Technology Co., LTD between the ages of six to eight weeks and with body weight between eighteen and twenty-two grams were used for the study. A spare mouse was also procured.
The A375 tumor cells were maintained in vitro in DMEM medium supplemented with 10% fetal bovine serum and 1% Penicillin-Streptomycin at 37° C. in an atmosphere of 5% CO2 in air. The tumor cells were routinely sub-cultured twice weekly. The cells growing in an exponential growth phase were harvested and counted for tumor inoculation.
Each mouse was inoculated subcutaneously at the right flank with A375 cells (5×10^6) in 0.2 mL of PBS supplemented with Matrigel (PBS: Matrigel=1:1) for tumor development. Animals were grouped for efficacy study on day 15 after tumor inoculation when the average tumor volume reached 220 mm^3. The test articles administration and the animal numbers in each group are shown in the above experimental Table 75.
At the time of routine monitoring, the animals were checked daily for any effects of tumor growth and treatments on normal behavior such as mobility, food and water consumption (by looking only), body weight gain/loss (body weights were measured twice weekly), eye/hair matting and any other abnormal effect as stated in the protocol. Death and observed clinical signs were recorded on the basis of the numbers of animals within each subset.
Prior to the onset of drug treatment, mice were measured for tumor size in two dimensions using a caliper, and the tumor volume (mm^3) was calculated using formula V=0.5 a×b^2 where a and b are the long and short diameters of the tumor in mm, respectively. Mice were randomized into different treatment groups based on the tumor volume.
The major endpoint was to see if the tumor growth could be delayed or mice could be cured. The tumor size was then used for calculations of T/C value. The T/C value (in percent) is an indication of antitumor effectiveness; T and C are the mean volumes of the treated and control groups, respectively on specified day.
TGI was calculated for each group using the formula: TGI (%)=[1−(Ti−T0)/(Ci−C0)]×100; Ti is the average tumor volume of a treatment group on a given day, T0 is the average tumor volume of the treatment group on the day of treatment start, Ci is the average tumor volume of the vehicle control group on the same day with Ti, and C0 is the average tumor volume of the vehicle group on the day of treatment start.
A one-way ANOVA followed by Dunnett's multiple comparison test was performed to compare tumor volume among vehicle group (Group 1) and treatment groups (Group 2-Group 12). All data were analyzed using GraphPad Prism, ns indicates p>0.05, * indicates p<0.05, ** indicates p<0.01, *** indicates p<0.001 and **** indicates p<0.0001.
Tumor growth inhibition of Compound 26, Compound 141 and dabrafenib in the treatment of female BALB/c nude mice bearing A375 xenografts was calculated based on tumor volume measured on […]. TGI and T/C were calculated respectively and the data are detailed in Table 82.

[1] = Compound 141, 1.5 mg/kg p.o. BID × 21 days

Q: What does the source list for `CCN(C)S(=O)(=O)Nc1ccc(F)c(Oc2ccc3ncn(C4CC5(CCN(C6CC7(C6)CN(c6cc8c(cc6F)c(N6CCC(=O)NC6=O)nn8C)C7)CC5)C4)c(=O)c3c2)c1C#N` (stereo not drawn) [Compound 141, 6-[2-cyano-3-[[ethyl(methyl)sulfamoyl]amino]-6-fluoro-phenoxy]-3-[7-[2-[3-(2,4-dioxohexahydropyrimidin-1-yl)-5-fluoro-1-methyl-indazol-6-yl]-2-azaspiro[3.3]heptan-6-yl]-7-azaspiro[3.5]nonan-2-yl]-4-oxo-quinazoline]?
A: Tumor volume (1.5 mg/kg p.o. BID x 21 days, day 35 (dosing-free regrowth), mean ± SEM): 1374 ± 116 mm^3; Tumor volume (1.5 mg/kg p.o. BID x 21 days, day 39 (dosing-free regrowth), mean ± SEM): 1709 ± 117 mm^3; Tumor volume (1.5 mg/kg p.o. BID x 21 days, day 42 (dosing-free regrowth), mean ± SEM): 2051 ± 177 mm^3; Tumor volume (1.5 mg/kg p.o. BID x 21 days, day 46 (dosing-free regrowth), mean ± SEM): 2593 ± 258 mm^3; Tumor volume (1.5 mg/kg p.o. BID x 21 days, day 49 (dosing-free regrowth), mean ± SEM): 2727 ± 382 mm^3; Tumor volume (1.5 mg/kg p.o. BID x 21 days, day 53 (dosing-free regrowth), mean ± SEM): 3079 ± 78 mm^3; Tumor volume (3 mg/kg p.o. QD x 21 days, day 0, mean ± SEM): 220 ± 15 mm^3; Tumor volume (3 mg/kg p.o. QD x 21 days, day 4, mean ± SEM): 253 ± 15 mm^3; Tumor volume (3 mg/kg p.o. QD x 21 days, day 7, mean ± SEM): 214 ± 17 mm^3; Tumor volume (3 mg/kg p.o. QD x 21 days, day 11, mean ± SEM): 169 ± 15 mm^3; Tumor volume (3 mg/kg p.o. QD x 21 days, day 14, mean ± SEM): 144 ± 16 mm^3; Tumor volume (3 mg/kg p.o. QD x 21 days, day 18, mean ± SEM): 172 ± 19 mm^3; Tumor volume (3 mg/kg p.o. QD x 21 days, day 21, mean ± SEM): 208 ± 30 mm^3; Tumor volume (3 mg/kg p.o. QD x 21 days, day 25 (dosing-free regrowth), mean ± SEM): 486 ± 63 mm^3; Tumor volume (3 mg/kg p.o. QD x 21 days, day 28 (dosing-free regrowth), mean ± SEM): 773 ± 63 mm^3; Tumor volume (3 mg/kg p.o. QD x 21 days, day 32 (dosing-free regrowth), mean ± SEM): 985 ± 85 mm^3; Tumor volume (3 mg/kg p.o. QD x 21 days, day 35 (dosing-free regrowth), mean ± SEM): 1339 ± 71 mm^3; Tumor volume (3 mg/kg p.o. QD x 21 days, day 39 (dosing-free regrowth), mean ± SEM): 1690 ± 103 mm^3; Tumor volume (3 mg/kg p.o. QD x 21 days, day 42 (dosing-free regrowth), mean ± SEM): 2099 ± 177 mm^3; Tumor volume (3 mg/kg p.o. QD x 21 days, day 46 (dosing-free regrowth), mean ± SEM): 2737 ± 176 mm^3; Tumor volume (3 mg/kg p.o. QD x 21 days, day 49 (dosing-free regrowth), mean ± SEM): 3078 ± 168 mm^3; Tumor volume (3 mg/kg p.o. QD x 21 days, day 53 (dosing-free regrowth)): 3659 mm^3; Tumor Size on PG-D21 (Mean ± SEM) (3 mg/kg p.o. QD × 21 days): 208 ± 30 mm^3; T/C (3 mg/kg p.o. QD × 21 days): 11.0%; TGI (3 mg/kg p.o. QD × 21 days): 100.8%; Tumor volume (5 mg/kg p.o. BID x 21 days, day 0, mean ± SEM): 220 ± 15 mm^3; Tumor volume (5 mg/kg p.o. BID x 21 days, day 4, mean ± SEM): 166 ± 11 mm^3; Tumor volume (5 mg/kg p.o. BID x 21 days, day 7, mean ± SEM): 100 ± 7 mm^3; Tumor volume (5 mg/kg p.o. BID x 21 days, day 11, mean ± SEM): 60 ± 4 mm^3; Tumor volume (5 mg/kg p.o. BID x 21 days, day 14, mean ± SEM): 38 ± 2 mm^3; Tumor volume (5 mg/kg p.o. BID x 21 days, day 18, mean ± SEM): 27 ± 3 mm^3; Tumor volume (5 mg/kg p.o. BID x 21 days, day 21, mean ± SEM): 23 ± 3 mm^3; Tumor volume (5 mg/kg p.o. BID x 21 days, day 25 (dosing-free regrowth), mean ± SEM): 31 ± 9 mm^3; Tumor volume (5 mg/kg p.o. BID x 21 days, day 28 (dosing-free regrowth), mean ± SEM): 56 ± 24 mm^3; Tumor volume (5 mg/kg p.o. BID x 21 days, day 32 (dosing-free regrowth), mean ± SEM): 109 ± 40 mm^3; Tumor volume (5 mg/kg p.o. BID x 21 days, day 35 (dosing-free regrowth), mean ± SEM): 190 ± 67 mm^3; Tumor volume (5 mg/kg p.o. BID x 21 days, day 39 (dosing-free regrowth), mean ± SEM): 345 ± 111 mm^3; Tumor volume (5 mg/kg p.o. BID x 21 days, day 42 (dosing-free regrowth), mean ± SEM): 484 ± 147 mm^3; Tumor volume (5 mg/kg p.o. BID x 21 days, day 46 (dosing-free regrowth), mean ± SEM): 732 ± 181 mm^3; Tumor volume (5 mg/kg p.o. BID x 21 days, day 49 (dosing-free regrowth), mean ± SEM): 1015 ± 308 mm^3; Tumor volume (5 mg/kg p.o. BID x 21 days, day 53 (dosing-free regrowth), mean ± SEM): 1470 ± 351 mm^3; Tumor volume (5 mg/kg p.o. BID x 21 days, day 56 (dosing-free regrowth), mean ± SEM): 1433 ± 181 mm^3; Tumor Size on PG-D21 (Mean ± SEM) (5 mg/kg p.o. BID × 21 days): 23 ± 3 mm^3; T/C (5 mg/kg p.o. BID × 21 days): 1.2%; TGI (5 mg/kg p.o. BID × 21 days): 111.8%; Tumor Size on PG-D21 (Mean ± SEM) [1]: 208 ± 21 mm^3; T/C [1]: 11.1%; TGI [1]: 100.7%
